How the values were obtained:
[1] = tested on: NPY-GFP neurons in hypothalamic slices; assay type: cell-based, mice
[2] = tested on: isolated SUR1-/- neurons; assay type: cell-based, mice
[3] = target: growth hormone secretagogue receptor (mouse (endogenous in NPY-GFP neurons)) (UniProt Q99P50)
Sequence of growth hormone secretagogue receptor (mouse (endogenous in NPY-GFP neurons)) (Q99P50 whole entry): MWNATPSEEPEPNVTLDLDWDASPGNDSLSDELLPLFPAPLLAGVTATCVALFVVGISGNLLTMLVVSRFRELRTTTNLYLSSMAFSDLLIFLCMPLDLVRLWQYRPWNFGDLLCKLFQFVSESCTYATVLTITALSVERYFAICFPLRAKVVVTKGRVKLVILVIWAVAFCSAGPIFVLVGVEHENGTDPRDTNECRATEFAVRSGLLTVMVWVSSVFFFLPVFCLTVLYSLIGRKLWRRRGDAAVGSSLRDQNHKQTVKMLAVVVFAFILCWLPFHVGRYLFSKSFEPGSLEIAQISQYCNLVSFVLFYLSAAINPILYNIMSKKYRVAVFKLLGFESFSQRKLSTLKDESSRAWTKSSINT

NC1=N[C@H](O)[C@H]2[C@H]3O[C@]4(O)O[C@@H]([C@@H](O)[C@@]2(N1)[C@@H]4O)[C@]3(O)CO [TTX, tetrodotoxin]
effect on ghrelin-induced changes in MP and IR [1]: reduces these ghrelin-induced changes in both MP and IR

CC1=NS(=O)(=O)c2cc(Cl)ccc2N1 [diazoxide]
stimulation of an increase in [Ca2+]c ([2]; diazoxide 200 μM, neurons from SUR1-/- mice): not

CCCCCCCC(=O)OC[C@H](NC(=O)[C@H](CO)NC(=O)CN)C(=O)N[C@@H](Cc1ccccc1)C(=O)N[C@@H](CC(C)C)C(=O)N[C@@H](CO)C(=O)N1CCC[C@H]1C(=O)N[C@@H](CCC(=O)O)C(=O)N[C@@H](Cc1c[nH]cn1)C(=O)N[C@@H](CCC(N)=O)C(=O)N[C@@H](CCCNC(=N)N)C(=O)N[C@H](C(=O)N[C@@H](CCC(N)=O)C(=O)N[C@@H](CCC(N)=O)C(=O)N[C@@H](CCCNC(=N)N)C(=O)N[C@@H](CCCCN)C(=O)N[C@@H](CCC(=O)O)C(=O)N[C@@H](CO)C(=O)N[C@@H](CCCCN)C(=O)N[C@@H](CCCCN)C(=O)N1CCC[C@H]1C(=O)N1CCC[C@H]1C(=O)N[C@@H](C)C(=O)N[C@@H](CCCCN)C(=O)N[C@@H](CC(C)C)C(=O)N[C@@H](CCC(N)=O)C(=O)N1CCC[C@H]1C(=O)N[C@@H](CCCNC(=N)N)C(=O)O)C(C)C [ghrelin]
average IR decrease [1]: -108 ± 60 MΩ
ghrelin-induced changes in MP and IR in the presence of TTX [1]: persistent, albeit diminished
neurons depolarized due to decreases in IR [1]: ~ 70%
neurons depolarized with increases in IR [1]: 7/22
average ΔMP (MP +ghrelin minus MP w/o ghrelin) ([1]; SD): 3.6 ± 1.7 mV
effect on [Ca2+]c [2]: reversibly stimulated an increase in [Ca^2+]c in a subset of isolated SUR1^-/- neurons

Acylated ghrelin (peptide)
EC50 of the rise of [Ca2+]c (fura-2) in isolated NPY-GFP neurons, from averages of the peak heights at each ghrelin concentration [3]: 0.11 nM

COc1ccc(Cl)cc1C(=O)NCCc1ccc(S(=O)(=O)NC(=O)NC2CCCCC2)cc1 [glibenclamide]
effect on ghrelin action ([2]; glibenclamide 1 μM, ghrelin 200 pM, neurons from SUR1-/- mice): no significant effect on ghrelin action
